We go through 19 compounds from patent US8623859B2, “Bradykinin B1 antagonists” (Evotec AG, priority 2008, dated 2014).

pIC50: −log10 of the molar value. Structures can show the parent of a compound that is named as a salt. A value given as a limit tells only on which side of the number the result lay.

The assay addresses T1, human B1 (Homo sapiens, UniProt P46663).
T1 construct: host or cells: CHO-K1
T1 sequence (P46663 1-353): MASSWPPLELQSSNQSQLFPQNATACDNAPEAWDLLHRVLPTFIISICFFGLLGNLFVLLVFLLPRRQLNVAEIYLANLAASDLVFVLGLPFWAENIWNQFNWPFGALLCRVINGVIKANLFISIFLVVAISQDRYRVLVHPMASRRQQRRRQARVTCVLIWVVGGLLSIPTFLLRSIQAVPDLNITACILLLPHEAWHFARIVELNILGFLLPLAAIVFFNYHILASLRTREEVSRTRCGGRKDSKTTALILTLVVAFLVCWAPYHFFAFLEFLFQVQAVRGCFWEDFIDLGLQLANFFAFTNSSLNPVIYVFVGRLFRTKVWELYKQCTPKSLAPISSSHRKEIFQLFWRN
In words: Calcium flux assay for Bradykinin B1 antagonist, CHO-K1 cell line expressing human B1. To be noted: CHO-K1 cells expressing human B1, agonist Lys-(Des-Arg)-Bradykinin, read-out: Potency (IC50 value against human B1). It is filed as cell-based. The gist of the method: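 CHO-K1 cells expressing human B1, loaded with 5 μM Fluo-4AM (2 h, 37° C) in HEPES buffer pH 7.4 with probenecid and 0.1% BSA, were preincubated 30 min at 25° C with compound (8 concentrations, triplicate, 1% DMSO) before B1 agonist addition. Ca2+ fluorescence monitored at 538 nm; background-normalized integrated values plotted against log antagonist concentration.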
A general note: Calcium flux is commonly read through the fluorescence of an indicator in the cells.

Take `COc1cc(C)c(S(=O)(=O)N(Cc2nc(C(=O)N3CCN(Cc4cnc5ccccc5c4)CC3)co2)C2CC2)c(C)c1` [Ex 254, N-Cyclopropyl-4-methoxy-2,6-dimethyl-N-[(4-{[4-(quinolin-3-ylmethyl)piperazin-1-yl]carbonyl}-1,3-oxazol-2-yl)methyl]benzenesulfonamide]: the pIC50 (commonly the IC50 on a negative log10 scale, so that one unit is a factor of ten) is > 8.00.

In the case of `COc1cc(C)c(S(=O)(=O)N(Cc2nc(C(=O)N3CCN(Cc4c[nH]nc4C)CC3)co2)C2CC2)c(C)c1` [Ex 255, N-Cyclopropyl-4-methoxy-2,6-dimethyl-N-{[4-({4-[(3-methyl-1H-pyrazol-4-yl)methyl]piperazin-1-yl}carbonyl)-1,3-oxazol-2-yl]methyl}benzenesulfonamide], the pIC50 is 7.00 to 8.00.

On to `COc1cc(C)c(S(=O)(=O)N(Cc2nc(C(=O)N3CCN(Cc4ccnc(N5CCCC5)c4)CC3)co2)C2CC2)c(C)c1` [Ex 256, N-Cyclopropyl-4-methoxy-2,6-dimethyl-N-{[4-({4-[(2-pyrrolidin-1-ylpyridin-4-yl)methyl]piperazin-1-yl}carbonyl)-1,3-oxazol-2-yl]methyl}benzenesulfonamide], for which the pIC50 was 6.00 to 7.00.

For the compound `COc1cc(C)c(S(=O)(=O)N(Cc2nc(C(=O)N(C)CCOc3ccncc3)co2)C2CC2)c(C)c1` [Ex 257, 2-({Cyclopropyl[(4-methoxy-2,6-dimethylphenyl)sulfonyl]amino}methyl)-N-methyl-N-[2-(pyridin-4-yloxy)ethyl]-1,3-oxazole-4-carboxamide], the pIC50 is 6.00 to 7.00.

For `COc1cc(C)c(S(=O)(=O)N(C)Cc2nnc(C(=O)N3CCN(CC4CCN(C)CC4)CC3)o2)c(C)c1` [Ex 258, 4-Methoxy-N,2,6-trimethyl-N-{[5-({4-[(1-methylpiperidin-4-yl)methyl]piperazin-1-yl}carbonyl)-1,3,4-oxadiazol-2-yl]methyl}benzenesulfonamide], the pIC50 was > 8.00.

For `COc1cc(C)c(S(=O)(=O)N(C)Cc2nnc(C(=O)N3CCN(CCCN4CCCC4)CC3)o2)c(C)c1` [Ex 259, 4-Methoxy-N,2,6-trimethyl-N-[(5-{[4-(3-pyrrolidin-1-ylpropyl)piperazin-1-yl]carbonyl}-1,3,4-oxadiazol-2-yl)methyl]benzenesulfonamide], the pIC50 is 7.00 to 8.00.

As for `COc1cc(C)c(S(=O)(=O)N(C)Cc2nnc(C(=O)N3CCN(Cc4ccc(OC)nc4)CC3)o2)c(C)c1` [Ex 260, 4-Methoxy-N-{[5-({4-[(6-methoxypyridin-3-yl)methyl]piperazin-1-yl}carbonyl)-1,3,4-oxadiazol-2-yl]methyl}-N,2,6-trimethylbenzenesulfonamide trifluoroacetate], the pIC50 is 7.00 to 8.00.

On to `COc1cc(C)c(S(=O)(=O)N(C)Cc2nnc(C(=O)N3CCN(Cc4ccc(N5CCCC5)nc4)CC3)o2)c(C)c1` [Ex 261, 4-Methoxy-N,2,6-trimethyl-N-{[5-({4-[(6-pyrrolidin-1-ylpyridin-3-yl)methyl]piperazin-1-yl}carbonyl)-1,3,4-oxadiazol-2-yl]methyl}benzenesulfonamide trifluoroacetate], for which the pIC50 is > 8.00.

As to `COc1cc(C)c(S(=O)(=O)N(C)Cc2nnc(C(=O)N3CCN(Cc4ccc(C(F)(F)F)nc4)CC3)o2)c(C)c1` [Ex 262, 4-Methoxy-N,2,6-trimethyl-N-({5-[(4-{[6-(trifluoromethyl)pyridin-3-yl]methyl}piperazin-1-yl)carbonyl]-1,3,4-oxadiazol-2-yl}methyl)benzenesulfonamide trifluoroacetate], the pIC50 is 6.00 to 7.00.

For the compound `COc1cc(C)c(S(=O)(=O)N(C)Cc2nnc(C(=O)N3CCN(CC4CCN(C(=O)OC(C)(C)C)CC4)CC3)o2)c(C)c1` [Ex 263, tert-Butyl 4-[(4-{[5-({[(4-methoxy-2,6-dimethylphenyl)sulfonyl](methyl)amino}methyl)-1,3,4-oxadiazol-2-yl]carbonyl}piperazin-1-yl)methyl]piperidine-1-carboxylate], the negative logarithm of the IC50 (pIC50) was 6.00 to 7.00.

For the compound `COc1cc(C)c(S(=O)(=O)N(C)Cc2nnc(C(=O)N3CCN(CC4CCN(C(C)C)CC4)CC3)o2)c(C)c1` [Ex 264, 4-Methoxy-N,2,6-trimethyl-N-({5-[(4-{[1-(1-methylethyl)piperidin-4-yl]methyl}piperazin-1-yl)carbonyl]-1,3,4-oxadiazol-2-yl}methyl)benzenesulfonamide trifluoroacetate], the pIC50 is 6.00 to 7.00.

Consider `COc1cc(C)c(S(=O)(=O)N(C)Cc2nnc(C(=O)N3CCN(CC4CCN(C5CCC5)CC4)CC3)o2)c(C)c1` [Ex 265, N-{[5-({4-[(1-Cyclobutylpiperidin-4-yl)methyl]piperazin-1-yl}carbonyl)-1,3,4-oxadiazol-2-yl]methyl}-4-methoxy-N,2,6-trimethylbenzenesulfonamide trifluoroacetate], for which the pIC50 is 6.00 to 7.00.

For the compound `COc1cc(C)c(S(=O)(=O)N(C)Cc2nnc(C(=O)N3CCN(CC4CCN(CC(C)(C)O)CC4)CC3)o2)c(C)c1` [Ex 266, N-({5-[(4-{[1-(2-Hydroxy-2-methylpropyl)piperidin-4-yl]methyl}piperazin-1-yl)carbonyl]-1,3,4-oxadiazol-2-yl}methyl)-4-methoxy-N,2,6-trimethylbenzenesulfonamide], the negative-log IC50 (pIC50) was 6.00 to 7.00.

As for `COc1cc(C)c(S(=O)(=O)N(C)Cc2nnc(C(=O)N(C)CCc3ccc(C4=NCCN4)cc3)o2)c(C)c1` [Ex 267, N-{2-[4-(4,5-Dihydro-1H-imidazol-2-yl)phenyl]ethyl}-5-({[(4-methoxy-2,6-dimethylphenyl)sulfonyl](methyl)amino}methyl)-N-methyl-1,3,4-oxadiazole-2-carboxamide], the pIC50 is > 8.00.

In the case of `COc1cc(C)c(S(=O)(=O)N(C)Cc2nnc(C(=O)N(C)Cc3ccc(CN4CCCC4)cc3)o2)c(C)c1` [Ex 268, 5-({[(4-Methoxy-2,6-dimethylphenyl)sulfonyl](methyl)amino}methyl)-N-methyl-N-[4-(pyrrolidin-1-ylmethyl)benzyl]-1,3,4-oxadiazole-2-carboxamide trifluoroacetate], the pIC50 is 7.00 to 8.00.

Turning to `COc1cc(C)c(S(=O)(=O)N(C)Cc2nnc(C(=O)NCCc3ccc(C4=NCCN4)cc3)o2)c(C)c1` [Ex 269, N-{2-[4-(4,5-Dihydro-1H-imidazol-2-yl)phenyl]ethyl}-5-({[(4-methoxy-2,6-dimethylphenyl)sulfonyl](methyl)amino}methyl)-1,3,4-oxadiazole-2-carboxamide trifluoroacetate], the pIC50 is > 8.00.

In the case of `COc1cc(C)c(S(=O)(=O)N(C)Cc2nnc(C(=O)N3CCN(C4CCN(C)CC4)CC3)o2)c(C)c1` [Ex 270, 4-Methoxy-N,2,6-trimethyl-N-[(5-{[4-(1-methylpiperidin-4-yl)piperazin-1-yl]carbonyl}-1,3,4-oxadiazol-2-yl)methyl]benzenesulfonamide trifluoroacetamide], the pIC50 was 6.00 to 7.00.

As to `COc1cc(C)c(S(=O)(=O)N(Cc2nnc(C(=O)N3CCN(C4CCN(C)CC4)CC3)o2)C2CC2)c(C)c1` [Ex 271, N-Cyclopropyl-4-methoxy-2,6-dimethyl-N-[(5-{[4-(1-methylpiperidin-4-yl)piperazin-1-yl]carbonyl}-1,3,4-oxadiazol-2-yl)methyl]benzenesulfonamide], the pIC50 was 7.00 to 8.00.

As for `COc1cc(C)c(S(=O)(=O)N(Cc2nnc(C(=O)N3CCN(CC4CCN(C)CC4)CC3)o2)C2CC2)c(C)c1` [Ex 272, N-Cyclopropyl-4-methoxy-2,6-dimethyl-N-{[5-({4-[(1-methylpiperidin-4-yl)methyl]piperazin-1-yl}carbonyl)-1,3,4-oxadiazol-2-yl]methyl}benzenesulfonamide], the pIC50 is > 8.00.
